The subject of one assay is A549. The assay can be described thus: Cytotoxicity against human A549 cells. In kind it is functional, cell-based.
The test system of the next assay is P388. Description: Cytotoxicity against mouse P388 cells. Type of assay: functional, cell-based.

Drawing on ChEMBL document CHEMBL1159307, “Theopederins K and L. Highly potent cytotoxic metabolites from a marine sponge Discodermia species” (J Nat Prod, 2002), this text covers IC50 for three compounds.

In the case of `C=C1C[C@](OC)([C@H](O)C(=O)N[C@H]2OCO[C@H]3[C@@H]2O[C@H](CC(/C=C/C/C=C/C=C/C(=O)OC)OC)C(C)(C)[C@@H]3OC)O[C@H](C)[C@@H]1C` (stereo partly specified) [THEOPEDERIN K METHYL ESTER], the half-inhibitory concentration (IC50) with A549 turned out to be 0.8 nM; in the assay with P388, 0.3 nM.

In the case of `C=C1C[C@](OC)([C@H](O)C(=O)N[C@H]2OCO[C@H]3[C@@H]2O[C@H](CC(/C=C/C/C=C/C=C/C(=O)O)OC)C(C)(C)[C@@H]3OC)O[C@H](C)[C@@H]1C` (stereo partly specified) [THEOPEDERIN K], the values for the half-inhibitory concentration (IC50) with A549 and in the assay on P388 were 1.5 nM and 0.1 nM, respectively.

With `C=C1C[C@](OC)([C@H](O)C(=O)N[C@H]2OCO[C@H]3[C@@H]2O[C@H](CC(O)/C=C/C/C=C/C=C/C(=O)O)C(C)(C)[C@@H]3OC)O[C@H](C)[C@@H]1C` (stereo partly specified) [THEOPEDERIN L], the IC50 in the assay on A549 was 3.2 nM; in the assay with P388, 7.3 nM.
